Article PMC11997999, “Uncovering α-Selectivity for Liver X Receptor Agonists for Lipotoxic Cancer Therapies” (Journal of Medicinal Chemistry, 2025)

Biological target: T1, LXRα LBD (GST) (Homo sapiens, UniProt Q13133)
T1 construct: 5 nM LXRα LBD (GST); 10 nM LXRβ LBD (GST); purchased ThermoFisher Scientific PV4655
T1 sequence (Q13133 209-447 limits assumed): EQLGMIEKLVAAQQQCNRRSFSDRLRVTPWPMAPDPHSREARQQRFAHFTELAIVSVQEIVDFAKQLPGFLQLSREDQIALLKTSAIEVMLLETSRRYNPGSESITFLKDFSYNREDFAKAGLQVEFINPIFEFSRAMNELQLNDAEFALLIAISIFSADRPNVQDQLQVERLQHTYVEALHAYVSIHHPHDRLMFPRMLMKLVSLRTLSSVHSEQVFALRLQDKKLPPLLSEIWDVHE
Assay: Time-resolved LXR FRET assay (LanthaScreen TR-FRET LXRα Coactivator Assay Kit)
Assay type: biochemical
Conditions: 5 nM LXRα LBD (GST), read after 6 h; R^2 of fit given; read-out: TR-FRET activity (EC50) LXRα
Description: The biochemical TR-FRET assays were performed using the LanthaScreen TR-FRET LXRα Coactivator Assay Kit, goat (ThermoFisher Scientific, PV4655), and the LanthaScreen TR-FRET LXRβ assay kit, goat (ThermoFisher Scientific, PV4658), according to the manufacturer’s instructions using the following concentrations: 5 nM LXRα LBD (GST); 10 nM LXRβ LBD (GST); 500 nM fluorescein-TRAP220/DRIP-2; 200 nM fluorescein-D22; 10 nM Tb anti-GST antibody. The TR-FRET signals were measured after 6 h using a TECAN SPARK multimode microplate reader with the following settings: first excitation wavelength: 360 nm (bandwidth 35 nm), first emission wavelength: 485 nm (bandwidth 20 nm); second excitation wavelength: 360 nm (bandwidth 35 nm), second emission wavelength: 535 nm (bandwidth 25 nm); integration time: 200 μs; lag time: 100 μs; settle time: 0 ms.

Structure (SMILES): O=C1C(Nc2ccc(N3CCCCC3)cc2)=C(c2ccccc2)C(=O)N1Cc1ccccc1 [Compound 40, 1-Benzyl-3-phenyl-4-((4-(piperidin-1-yl)phenyl)amino)-1H-pyrrole-2,5-dione]
- EC50: 42 nM
